Source: the supplement of paper PMC10307832

Columns and labels:
Experiment in all cases: relative viability (nuclei count vs DMSO), 5 days (fraction); higher = more cells survive
LCLC-97TM1 = test system: LCLC-97TM1
Outline: (§1)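 Relative viability divides the nuclei count in treated wells by that in vehicle wells. Lung cancer cell lines were seeded in 1536-well plates, dosed by pin tool the next day, and fixed and stained after 5 days in one step with final 0.05% Triton X-100, 1% formaldehyde and 1 ug/ml Hoechst. Dosing was a single drug or a fixed anchor-drug dose plus five library-drug doses (not always all listed) in √10 steps, and values are medians of duplicate plates imaged at 4×.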

NCI-H727 = test system: NCI-H727
Outline: as §1

NCI-H2347 = test system: NCI-H2347
Outline: as §1

EMC-BAC-2 = test system: EMC-BAC-2
Outline: as §1

NCI-H1734 = test system: NCI-H1734
Outline: as §1

NCI-H322M = test system: NCI-H322M
Outline: as §1

HOP-62 = test system: HOP-62
Outline: as §1

LXF-289 = test system: LXF-289
Outline: as §1

SW 1573 = test system: SW 1573
Outline: as §1

NCI-H661 = test system: NCI-H661
Outline: as §1

EPLC-272H = test system: EPLC-272H
Outline: as §1

H3255 = test system: H3255
Outline: as §1

NCI-H647 = test system: NCI-H647
Outline: as §1

NCI-H1915 = test system: NCI-H1915
Outline: as §1

NCI-H2126 = test system: NCI-H2126
Outline: as §1

NCI-H2023 = test system: NCI-H2023
Outline: as §1

NCI-H2085 = test system: NCI-H2085
Outline: as §1

NCI-H2009 = test system: NCI-H2009
Outline: as §1

PC-14 = test system: PC-14
Outline: as §1

SK-LU-1 = test system: SK-LU-1
Outline: as §1

NCI-H1993 = test system: NCI-H1993
Outline: as §1

With O=c1cc(N2CCOCC2)oc2c(-c3cccc4c3sc3ccccc34)cccc12 + O=C(CCCCCCC(=O)Nc1ccccc1)NO [Vorinostat] (partner 1 µM) as the molecule, how does the relative viability (LCLC-97TM1; first compound 0.01 µM) read?
The relative viability was 0.699.

And the relative viability (LCLC-97TM1; first compound 0.03162 µM)?
Its relative viability is 0.725.

And the relative viability (LCLC-97TM1; first compound 0.1 µM)?
Its relative viability is 0.3.

What about the relative viability (LCLC-97TM1; first compound 0.3162 µM) of the same molecule?
Its relative viability is 0.66.

What about the relative viability (LCLC-97TM1; first compound 1 µM) of the same molecule?
The relative viability was 0.784.

And the relative viability (NCI-H727; first compound 0.01 µM)?
The relative viability was 1.12.

And the relative viability (NCI-H727; first compound 0.03162 µM)?
The relative viability was 1.31.

And the relative viability (NCI-H727; first compound 0.1 µM)?
Its relative viability is 0.626.

And the relative viability (NCI-H727; first compound 0.3162 µM)?
Its relative viability is 1.04.

And the relative viability (NCI-H727; first compound 1 µM)?
Its relative viability is 1.19.

What about the relative viability (NCI-H2347; first compound 0.01 µM) of the same molecule?
The relative viability was 0.622.

What about the relative viability (NCI-H2347; first compound 0.03162 µM) of the same molecule?
The relative viability was 0.547.

What about the relative viability (NCI-H2347; first compound 0.1 µM) of the same molecule?
Its relative viability is 0.534.

And the relative viability (NCI-H2347; first compound 0.3162 µM)?
Its relative viability is 0.595.

What about the relative viability (NCI-H2347; first compound 1 µM) of the same molecule?
Its relative viability is 0.635.

What about the relative viability (EMC-BAC-2; first compound 0.01 µM) of the same molecule?
The relative viability was 0.458.

What about the relative viability (EMC-BAC-2; first compound 0.03162 µM) of the same molecule?
The relative viability was 0.512.

What about the relative viability (EMC-BAC-2; first compound 0.1 µM) of the same molecule?
Its relative viability is 0.533.

What about the relative viability (EMC-BAC-2; first compound 0.3162 µM) of the same molecule?
Its relative viability is 0.496.

What about the relative viability (EMC-BAC-2; first compound 1 µM) of the same molecule?
The relative viability was 0.198.

What about the relative viability (NCI-H1734; first compound 0.01 µM) of the same molecule?
The relative viability was 0.839.

And the relative viability (NCI-H1734; first compound 0.03162 µM)?
The relative viability was 0.819.

And the relative viability (NCI-H1734; first compound 0.1 µM)?
Its relative viability is 0.631.

And the relative viability (NCI-H1734; first compound 0.3162 µM)?
The relative viability was 0.773.

What about the relative viability (NCI-H1734; first compound 1 µM) of the same molecule?
The relative viability was 0.819.

And the relative viability (NCI-H322M; first compound 0.01 µM)?
Its relative viability is 0.826.

And the relative viability (NCI-H322M; first compound 0.03162 µM)?
The relative viability was 0.92.

What about the relative viability (NCI-H322M; first compound 0.3162 µM) of the same molecule?
The relative viability was 0.871.

What about the relative viability (NCI-H322M; first compound 1 µM) of the same molecule?
Its relative viability is 0.678.

And the relative viability (HOP-62; first compound 0.01 µM)?
Its relative viability is 0.554.

What about the relative viability (HOP-62; first compound 0.03162 µM) of the same molecule?
The relative viability was 0.775.

And the relative viability (HOP-62; first compound 0.1 µM)?
The relative viability was 0.58.

What about the relative viability (HOP-62; first compound 0.3162 µM) of the same molecule?
The relative viability was 0.605.

What about the relative viability (HOP-62; first compound 1 µM) of the same molecule?
The relative viability was 0.685.

What about the relative viability (LXF-289; first compound 0.01 µM) of the same molecule?
The relative viability was 0.797.

And the relative viability (LXF-289; first compound 0.03162 µM)?
Its relative viability is 0.789.

What about the relative viability (LXF-289; first compound 0.1 µM) of the same molecule?
The relative viability was 0.693.

And the relative viability (LXF-289; first compound 0.3162 µM)?
Its relative viability is 0.741.

And the relative viability (LXF-289; first compound 1 µM)?
The relative viability was 0.827.

And the relative viability (SW 1573; first compound 0.01 µM)?
The relative viability was 0.572.

And the relative viability (SW 1573; first compound 0.03162 µM)?
Its relative viability is 0.767.

And the relative viability (SW 1573; first compound 0.1 µM)?
The relative viability was 0.55.

And the relative viability (SW 1573; first compound 0.3162 µM)?
The relative viability was 0.614.

What about the relative viability (SW 1573; first compound 1 µM) of the same molecule?
The relative viability was 0.592.

What about the relative viability (NCI-H661; first compound 0.01 µM) of the same molecule?
The relative viability was 0.761.

And the relative viability (NCI-H661; first compound 0.03162 µM)?
Its relative viability is 0.793.

What about the relative viability (NCI-H661; first compound 0.1 µM) of the same molecule?
The relative viability was 0.836.

And the relative viability (NCI-H661; first compound 0.3162 µM)?
The relative viability was 0.79.

What about the relative viability (NCI-H661; first compound 1 µM) of the same molecule?
The relative viability was 0.765.

What about the relative viability (EPLC-272H; first compound 0.01 µM) of the same molecule?
Its relative viability is 0.539.

What about the relative viability (EPLC-272H; first compound 0.03162 µM) of the same molecule?
The relative viability was 0.4.

And the relative viability (EPLC-272H; first compound 0.1 µM)?
The relative viability was 0.54.

What about the relative viability (EPLC-272H; first compound 0.3162 µM) of the same molecule?
The relative viability was 0.358.

What about the relative viability (EPLC-272H; first compound 1 µM) of the same molecule?
Its relative viability is 0.5.

What about the relative viability (H3255; first compound 0.01 µM) of the same molecule?
The relative viability was 0.83.

And the relative viability (H3255; first compound 0.03162 µM)?
Its relative viability is 0.837.

And the relative viability (H3255; first compound 0.1 µM)?
Its relative viability is 0.759.

And the relative viability (H3255; first compound 0.3162 µM)?
The relative viability was 0.765.

And the relative viability (H3255; first compound 1 µM)?
Its relative viability is 0.558.

What about the relative viability (NCI-H647; first compound 0.01 µM) of the same molecule?
Its relative viability is 0.662.

What about the relative viability (NCI-H647; first compound 0.03162 µM) of the same molecule?
Its relative viability is 0.708.

And the relative viability (NCI-H647; first compound 0.1 µM)?
The relative viability was 0.462.

And the relative viability (NCI-H647; first compound 0.3162 µM)?
The relative viability was 0.695.

What about the relative viability (NCI-H647; first compound 1 µM) of the same molecule?
The relative viability was 0.757.

What about the relative viability (NCI-H1915; first compound 0.01 µM) of the same molecule?
Its relative viability is 0.497.

And the relative viability (NCI-H1915; first compound 0.03162 µM)?
The relative viability was 0.596.

And the relative viability (NCI-H1915; first compound 0.1 µM)?
The relative viability was 0.521.

And the relative viability (NCI-H1915; first compound 0.3162 µM)?
The relative viability was 0.516.

What about the relative viability (NCI-H1915; first compound 1 µM) of the same molecule?
Its relative viability is 0.544.

And the relative viability (NCI-H2126; first compound 0.01 µM)?
The relative viability was 0.84.

What about the relative viability (NCI-H2126; first compound 0.03162 µM) of the same molecule?
Its relative viability is 0.751.

What about the relative viability (NCI-H2126; first compound 0.1 µM) of the same molecule?
The relative viability was 0.668.

What about the relative viability (NCI-H2126; first compound 0.3162 µM) of the same molecule?
Its relative viability is 0.734.

What about the relative viability (NCI-H2126; first compound 1 µM) of the same molecule?
The relative viability was 0.771.

And the relative viability (NCI-H2023; first compound 0.01 µM)?
Its relative viability is 0.733.

What about the relative viability (NCI-H2023; first compound 0.03162 µM) of the same molecule?
The relative viability was 0.76.

And the relative viability (NCI-H2023; first compound 0.1 µM)?
The relative viability was 0.786.

And the relative viability (NCI-H2023; first compound 0.3162 µM)?
Its relative viability is 0.55.

What about the relative viability (NCI-H2023; first compound 1 µM) of the same molecule?
The relative viability was 0.677.

What about the relative viability (NCI-H2085; first compound 0.01 µM) of the same molecule?
Its relative viability is 0.779.

And the relative viability (NCI-H2085; first compound 0.03162 µM)?
Its relative viability is 0.783.

And the relative viability (NCI-H2085; first compound 0.1 µM)?
Its relative viability is 0.755.

And the relative viability (NCI-H2085; first compound 0.3162 µM)?
Its relative viability is 0.788.

And the relative viability (NCI-H2085; first compound 1 µM)?
The relative viability was 0.753.

What about the relative viability (NCI-H2009; first compound 0.01 µM) of the same molecule?
Its relative viability is 0.715.

And the relative viability (NCI-H2009; first compound 0.03162 µM)?
The relative viability was 0.727.

And the relative viability (NCI-H2009; first compound 0.1 µM)?
The relative viability was 0.696.

What about the relative viability (NCI-H2009; first compound 0.3162 µM) of the same molecule?
The relative viability was 0.761.

And the relative viability (NCI-H2009; first compound 1 µM)?
Its relative viability is 0.7.

And the relative viability (PC-14; first compound 0.01 µM)?
Its relative viability is 0.682.

And the relative viability (PC-14; first compound 0.03162 µM)?
Its relative viability is 0.75.

What about the relative viability (PC-14; first compound 0.1 µM) of the same molecule?
The relative viability was 0.713.

What about the relative viability (PC-14; first compound 0.3162 µM) of the same molecule?
The relative viability was 0.84.

What about the relative viability (PC-14; first compound 1 µM) of the same molecule?
Its relative viability is 0.768.

And the relative viability (SK-LU-1; first compound 0.01 µM)?
The relative viability was 0.79.

And the relative viability (SK-LU-1; first compound 0.03162 µM)?
Its relative viability is 0.707.

And the relative viability (SK-LU-1; first compound 0.1 µM)?
The relative viability was 0.751.

What about the relative viability (SK-LU-1; first compound 0.3162 µM) of the same molecule?
The relative viability was 0.778.

What about the relative viability (SK-LU-1; first compound 1 µM) of the same molecule?
Its relative viability is 0.733.

And the relative viability (NCI-H1993; first compound 0.01 µM)?
Its relative viability is 1.21.

And the relative viability (NCI-H1993; first compound 0.03162 µM)?
Its relative viability is 0.769.

And the relative viability (NCI-H1993; first compound 0.1 µM)?
Its relative viability is 0.94.

What about the relative viability (NCI-H1993; first compound 0.3162 µM) of the same molecule?
Its relative viability is 0.851.

And the relative viability (NCI-H1993; first compound 1 µM)?
The relative viability was 0.697.
